# Target: T1, Collagenase ColG (Hathewaya histolytica, UniProt Q9X721)
# T1 sequence (Q9X721 whole entry): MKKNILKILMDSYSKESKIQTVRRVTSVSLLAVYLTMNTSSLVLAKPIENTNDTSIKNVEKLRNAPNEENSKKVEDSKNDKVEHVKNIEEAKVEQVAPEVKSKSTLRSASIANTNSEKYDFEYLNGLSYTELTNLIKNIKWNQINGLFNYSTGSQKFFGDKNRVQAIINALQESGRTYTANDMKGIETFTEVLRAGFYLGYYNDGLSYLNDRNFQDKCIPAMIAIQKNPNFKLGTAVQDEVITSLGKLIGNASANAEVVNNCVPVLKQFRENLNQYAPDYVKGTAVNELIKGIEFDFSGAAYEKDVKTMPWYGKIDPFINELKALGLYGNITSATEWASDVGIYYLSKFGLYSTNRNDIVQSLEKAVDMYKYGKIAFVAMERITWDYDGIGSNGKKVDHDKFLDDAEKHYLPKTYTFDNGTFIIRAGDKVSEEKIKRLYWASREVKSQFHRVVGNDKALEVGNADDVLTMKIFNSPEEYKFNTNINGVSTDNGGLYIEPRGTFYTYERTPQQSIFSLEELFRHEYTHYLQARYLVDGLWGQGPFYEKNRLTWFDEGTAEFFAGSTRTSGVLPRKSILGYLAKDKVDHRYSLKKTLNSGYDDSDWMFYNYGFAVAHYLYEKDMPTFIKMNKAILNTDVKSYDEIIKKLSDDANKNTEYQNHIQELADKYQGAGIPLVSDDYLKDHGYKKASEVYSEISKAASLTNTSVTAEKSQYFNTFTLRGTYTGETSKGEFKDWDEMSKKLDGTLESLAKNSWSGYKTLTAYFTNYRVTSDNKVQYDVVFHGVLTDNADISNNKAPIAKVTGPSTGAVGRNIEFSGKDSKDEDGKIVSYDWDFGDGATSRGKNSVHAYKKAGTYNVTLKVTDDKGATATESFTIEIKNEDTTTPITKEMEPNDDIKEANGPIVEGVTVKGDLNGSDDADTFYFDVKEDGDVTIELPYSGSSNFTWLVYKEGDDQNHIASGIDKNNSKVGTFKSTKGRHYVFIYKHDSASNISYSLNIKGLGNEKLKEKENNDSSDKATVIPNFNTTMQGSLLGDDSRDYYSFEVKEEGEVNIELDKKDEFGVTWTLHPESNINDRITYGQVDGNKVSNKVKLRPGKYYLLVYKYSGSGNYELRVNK
# Assay: MMP Enzyme Inhibition Assay
# Protocol: Initial rates for the hydrolysis of the thioester substrate were used for assessing the catalytic activity and inhibition of the MMPs by the spectrophotometric method. The change of absorbance at 405 nm was monitored. The inhibition constant Ki was then determined by using Easson-Stedman plots and a linear regression program.
row,SMILES,Ki
1,"CC(NC(=O)C(Cc1ccccc1)NS(=O)(=O)c1ccc2ccccc2c1)C(=O)Nc1nnc(S)s1 (stereo unspecified) [2-(naphthalene-2-sulfonamido)-3-phenyl-N-{1-[(5-sulfanyl-1,3,4-thiadiazol-2-yl)carbamoyl]ethyl}propanamide]",40 µM
2,"CC(NC(=O)C(Cc1ccccc1)NC(=O)NS(=O)(=O)c1ccc(Cl)cc1)C(=O)Nc1nnc(S)s1 (stereo unspecified) [2-({[(4-chlorobenzene)sulfonyl]carbamoyl}amino)-3-phenyl-N-{1-[(5-sulfanyl-1,3,4-thiadiazol-2-yl)carbamoyl]ethyl}propanamide]",0.3 µM
3,"CC(NC(=O)C(Cc1ccccc1)NC(=O)NS(=O)(=O)c1ccc(F)cc1)C(=O)Nc1nnc(S)s1 (stereo unspecified) [2-({[(4-fluorobenzene)sulfonyl]carbamoyl}amino)-3-phenyl-N-{1-[(5-sulfanyl-1,3,4-thiadiazol-2-yl)carbamoyl]ethyl}propanamide]",0.2 µM
4,"Cc1ccc(S(=O)(=O)NC(=O)NC(Cc2ccccc2)C(=O)NC(C)C(=O)Nc2nnc(S)s2)cc1 (stereo unspecified) [2-({[(4-methylbenzene)sulfonyl]carbamoyl}amino)-3-phenyl-N-{1-[(5-sulfanyl-1,3,4-thiadiazol-2-yl)carbamoyl]ethyl}propanamide]",4 µM
5,"CC(NC(=O)C(Cc1ccccc1)NS(=O)(=O)c1c(F)c(F)c(F)c(F)c1F)C(=O)Nc1nnc(S)s1 (stereo unspecified) [2-[(2,3,4,5,6-pentafluorobenzene)sulfonamido]-3-phenyl-N-{1-[(5-sulfanyl-1,3,4-thiadiazol-2-yl)carbamoyl]ethyl}propanamide]",5 µM
6,"CC(NC(=O)C(Cc1ccccc1)NS(=O)(=O)c1cc(Cl)ccc1Cl)C(=O)Nc1nnc(S)s1 (stereo unspecified) [2-[(2,5-dichlorobenzene)sulfonamido]-3-phenyl-N-{1-[(5-sulfanyl-1,3,4-thiadiazol-2-yl)carbamoyl]ethyl}propanamide]",15 µM
7,"CC(=O)Nc1ccc(S(=O)(=O)NC(Cc2ccccc2)C(=O)NC(C)C(=O)Nc2nnc(S)s2)cc1 (stereo unspecified) [2-[(4-acetamidobenzene)sulfonamido]-3-phenyl-N-{1-[(5-sulfanyl-1,3,4-thiadiazol-2-yl)carbamoyl]ethyl}propanamide]",16 µM
8,"CC(NC(=O)C(Cc1ccccc1)NS(=O)(=O)c1ccc(Br)cc1)C(=O)Nc1nnc(S)s1 (stereo unspecified) [2-[(4-bromobenzene)sulfonamido]-3-phenyl-N-{1-[(5-sulfanyl-1,3,4-thiadiazol-2-yl)carbamoyl]ethyl}propanamide]",16 µM
9,"CC(NC(=O)C(Cc1ccccc1)NS(=O)(=O)c1ccc(F)cc1)C(=O)Nc1nnc(S)s1 (stereo unspecified) [2-[(4-fluorobenzene)sulfonamido]-3-phenyl-N-{1-[(5-sulfanyl-1,3,4-thiadiazol-2-yl)carbamoyl]ethyl}propanamide]",21 µM
10,"CC(NC(=O)C(Cc1ccccc1)NS(=O)(=O)c1ccc(I)cc1)C(=O)Nc1nnc(S)s1 (stereo unspecified) [2-[(4-iodobenzene)sulfonamido]-3-phenyl-N-{1-[(5-sulfanyl-1,3,4-thiadiazol-2-yl)carbamoyl]ethyl}propanamide]",14 µM
11,"COc1ccc(S(=O)(=O)NC(Cc2ccccc2)C(=O)NC(C)C(=O)Nc2nnc(S)s2)cc1 (stereo unspecified) [2-[(4-methoxybenzene)sulfonamido]-3-phenyl-N-{1-[(5-sulfanyl-1,3,4-thiadiazol-2-yl)carbamoyl]ethyl}propanamide]",14 µM
12,"Cc1ccc(S(=O)(=O)NC(Cc2ccccc2)C(=O)NC(C)C(=O)Nc2nnc(S)s2)cc1 (stereo unspecified) [2-[(4-methylbenzene)sulfonamido]-3-phenyl-N-{1-[(5-sulfanyl-1,3,4-thiadiazol-2-yl)carbamoyl]ethyl}propanamide]",15 µM
13,"CC(NC(=O)C(Cc1ccccc1)NS(=O)(=O)c1ccc([N+](=O)[O-])cc1)C(=O)Nc1nnc(S)s1 (stereo unspecified) [2-[(4-nitrobenzene)sulfonamido]-3-phenyl-N-{1-[(5-sulfanyl-1,3,4-thiadiazol-2-yl)carbamoyl]ethyl}propanamide]",13 µM
14,"CC(NC(=O)C(Cc1ccccc1)NS(=O)(=O)CC12CCC(CC1=O)C2(C)C)C(=O)Nc1nnc(S)s1 (stereo unspecified) [2-[({7,7-dimethyl-2-oxobicyclo[2.2.1]heptan-1-yl}methane)sulfonamido]-3-phenyl-N-{1-[(5-sulfanyl-1,3,4-thiadiazol-2-yl)carbamoyl]ethyl}propanamide]",25 µM
15,"CC(NC(=O)C(Cc1ccccc1)NS(=O)(=O)c1cccc2c(N(C)C)cccc12)C(=O)Nc1nnc(S)s1 (stereo unspecified) [2-{[5-(dimethylamino)naphthalene-1-]sulfonamido}-3-phenyl-N-{1-[(5-sulfanyl-1,3,4-thiadiazol-2-yl)carbamoyl]ethyl}propanamide]",43 µM
16,"CC(NC(=O)C(Cc1ccccc1)NC(=O)NS(=O)(=O)c1ccccc1)C(=O)Nc1nnc(S)s1 (stereo unspecified) [2-{[(benzenesulfonyl)carbamoyl]amino}-3-phenyl-N-{1-[(5-sulfanyl-1,3,4-thiadiazol-2-yl)carbamoyl]ethyl}propanamide]",3 µM
17,"CC(NC(=O)C(Cc1ccccc1)NS(=O)(=O)Cc1ccccc1)C(=O)Nc1nnc(S)s1 (stereo unspecified) [3-phenyl-2-(phenylmethane)sulfonamido-N-{1-[(5-sulfanyl-1,3,4-thiadiazol-2-yl)carbamoyl]ethyl}propanamide]",19 µM
18,"CC(NC(=O)C(Cc1ccccc1)NS(=O)(=O)c1cccc2cccnc12)C(=O)Nc1nnc(S)s1 (stereo unspecified) [3-phenyl-2-(quinoline-8-sulfonamido)-N-{1-[(5-sulfanyl-1,3,4-thiadiazol-2-yl)carbamoyl]ethyl}propanamide]",36 µM
19,"CC(NC(=O)C(Cc1ccccc1)NS(=O)(=O)c1cccs1)C(=O)Nc1nnc(S)s1 (stereo unspecified) [3-phenyl-N-{1-[(5-sulfanyl-1,3,4-thiadiazol-2-yl)carbamoyl]ethyl}-2-(thiophene-2-sulfonamido)propanamide]",9 µM
20,"Cc1cc(C)c(S(=O)(=O)NC(Cc2ccccc2)C(=O)NC(C)C(=O)Nc2nnc(S)s2)c(C)c1 (stereo unspecified) [3-phenyl-N-{1-[(5-sulfanyl-1,3,4-thiadiazol-2-yl)carbamoyl]ethyl}-2-[(2,4,6-trimethylbenzene)sulfonamido]propanamide]",17 µM
21,"CC(NC(=O)C(Cc1ccccc1)NS(=O)(=O)c1cccc(C(F)(F)F)c1)C(=O)Nc1nnc(S)s1 (stereo unspecified) [3-phenyl-N-{1-[(5-sulfanyl-1,3,4-thiadiazol-2-yl)carbamoyl]ethyl}-2-{[3-(trifluoromethyl)benzene]sulfonamido}propanamide]",9 µM

# — BindingDB's records for doi:10.1016/S0960-894X(02)00564-4 (Universita Degli Studi Di Firenze, 2002)
